Experimental data published in publication PMC8956739, “A synthetic lipopeptide targeting top-priority multidrug-resistant Gram-negative pathogens” (Nature Communications, 2022).
Values after ≈ are worked out from the molar mass of the structure shown. Read-outs that look alike come from different tables or passages of the source. Residues, ends and D or L forms follow the SMILES beside them.

Experiments:
[1] = tested on: Swiss mice, kidney; experiment: Nephrotoxicity in mice (kidney histopathology); type: in vivo, mouse
Procedure, shortened: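 Female Swiss mice (7-week-old, 22–28 g) received lipopeptides in saline either s.c. at 12 mg/kg ×6 every 2 h (total 72 mg/kg, n = 3) or i.p. at 20 or 25 mg/kg ×6 every 2 h (total 120 mg/kg, n = 6; 150 mg/kg, n = 3). Right kidney collected 20 h after last dose, fixed in 10% buffered formalin (pH 7.4), histology scored blinded.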

[2] = tested on: A. baumannii ATCC 19606; type: cell-based, Acinetobacter baumannii; conditions: ATCC 19606
Procedure, shortened: (§1)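 Each strain is tested in cation-adjusted Mueller–Hinton broth using the micro-dilution technique, and growth inhibition gives the MIC.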

[3] = tested on: A. baumannii FADDI-AB030; type: cell-based, Acinetobacter baumannii; conditions: FADDI-AB030
Procedure, shortened: as §1

[4] = tested on: A. baumannii FADDI-AB034; type: cell-based, Acinetobacter baumannii; conditions: FADDI-AB034
Procedure, shortened: as §1

[5] = tested on: P. aeruginosa ATCC 27853; type: cell-based, Pseudomonas aeruginosa; conditions: ATCC 27853
Procedure, shortened: as §1

[6] = tested on: P. aeruginosa FADDI-PA025; type: cell-based, Pseudomonas aeruginosa; conditions: FADDI-PA025
Procedure, shortened: as §1

[7] = tested on: P. aeruginosa FADDI-PA038; type: cell-based, Pseudomonas aeruginosa; conditions: FADDI-PA038
Procedure, shortened: as §1

[8] = tested on: K. pneumoniae FADDI-KP032; type: cell-based, Klebsiella pneumoniae; conditions: FADDI-KP032
Procedure, shortened: as §1

[9] = tested on: K. pneumoniae FADDI-KP065; type: cell-based, Klebsiella pneumoniae; conditions: FADDI-KP065
Procedure, shortened: as §1

[10] = Cell viability after 24 h treatment; type: cell-based, human; conditions: human, KCNJ16 knockout HK-2 cells (kidney proximal tubular), Cell viability, KCNJ16 KO, KCNJ16 knockout HK-2 cells, 24 h, Fig. 6b
Procedure: Fig. 6 Transcriptomic changes in human kidney proximal tubular HK-2 cells following treatments with polymyxin B (PMB), colistin (COL), F287, F319, and F365. a Numbers of differentially expressed genes. Distinctive intersections are color-coded. b Cell viability difference (two-tailed Student’s t-test, n = 4 biologically independent cells, Benjamini–Hochberg adjusted P-values) between wild-type HK-2 and KCNJ16 knockout (KO) cells following 24 h treatment with lipopeptides. n.s., not significant; ^*adjusted P < 0.05, ^**adjusted P < 0.01, ^***adjusted P < 0.001. Data are shown as mean ± s.d. and individual data points. c Extracted transcriptional regulatory network from Signor database with 1-step neighbor constraints (enlarged for detail). Source data are provided as a Source Data file.

For `CCCCCCCC(=O)N[C@@H](CCN)C(=O)N[C@H](C(=O)N[C@@H](CCN)C(=O)N[C@H]1CCNC(=O)[C@H]([C@@H](C)O)NC(=O)[C@H](CCN)NC(=O)[C@H](CCN)NC(=O)[C@H](CC)NC(=O)[C@@H](CC(C)C)NC(=O)[C@H](CCN)NC1=O)[C@@H](C)O` [Lipopeptide F319] (HELM PEPTIDE1{[CCCCCCCC(=O)[*:2]].[Dab].T.[Dab].[Dab].[Dab].[dL].[Abu].[Dab].[Dab].T}$PEPTIDE1,PEPTIDE1,5:R3-11:R2$$$V2.0), the “Kidney histopathology (SQS Score)” value ([1]; 72 mg/kg/d subcutaneously in six divided doses every 2 h, n = 3) was “+1 (SQS + 1 = mild damage (overall score, 1 to <15))”, the “Kidney histopathology, mice with the SQS score” value ([1]; mouse, in vivo) was 1/3 and the “MIC A. baumannii ATCC 19606” value [2] was 0.5 µg/mL (≈ 0.443 µM). For the same molecule, the “MIC A. baumannii FADDI-AB030” value [3] was 0.5 µg/mL (≈ 0.443 µM), the “MIC A. baumannii FADDI-AB034” value [4] was less than 0.125 µg/mL and the “MIC P. aeruginosa ATCC 27853” value [5] was 0.5 µg/mL (≈ 0.443 µM). For the same molecule, the MIC, No Survanta [5] was 1 µg/mL (≈ 0.887 µM), the “MIC P. aeruginosa FADDI-PA025” value [6] was 4 µg/mL (≈ 3.55 µM) and the “MIC P. aeruginosa FADDI-PA038” value [7] was 4 µg/mL (≈ 3.55 µM). The “MIC K. pneumoniae FADDI-KP032” value [8] was 0.25 µg/mL (≈ 0.222 µM), the “MIC K. pneumoniae FADDI-KP065” value [9] was less than 0.125 µg/mL and the viability at 24 h ([10]; Rep1, replicate 1, read-out: Cell viability, KCNJ16 KO, Rep1) was 104%. For the same molecule, the viability at 24 h ([10]; Rep2, replicate 2, read-out: Cell viability, KCNJ16 KO, Rep2) was 95.5%, the viability at 24 h ([10]; Rep3, replicate 3, read-out: Cell viability, KCNJ16 KO, Rep3) was 91.1% and the viability at 24 h ([10]; Rep4, replicate 4, read-out: Cell viability, KCNJ16 KO, Rep4) was 92.6%.
